# Results published in patent US20200079819A1, “Use of a Vaccine Targeting a Cryptic Tert Epitope, for Treating Lung Cancer in a HLA-A*0201-Positive Never-Smoker or Light-Former Smoker Patient” (Vaxon Biotech, priority 2017, published 2020).
# Several values for one entry are separate records, joined by “and”; a condition that tells them apart may be missing. Equal values may be shown once. No end group written: not given here.
# System: HLA-A*0201 positive patients with NSCLC expressing TERT
# Assay: Vx-001-201 randomized double blind phase IIb clinical trial (OS, TTF, 12 months survival)
# Type: in vivo, human
# Text: The Vx-001-201 study is a randomized, double blind multicenter study done in 70 centers in France, Germany, Spain, Italy, Greece, Poland, Romania and Czech Republic. Key eligibility criteria were a) non small cell lung cancer (NSCLC), b) stage IV or recurrent stage I-III, c) disease control after platinum based first line chemotherapy according to RECIST 1.1 criteria, d) HLA-A*0201 positivity, e) tumors expressing TElomerase Reverse Transcriptase (TERT), f) ECOG 0 or 1 g) absence of brain metastasis.
# a) Principal endpoint: overall survival (OS) measured from randomization
# b) Secondary endpoints: • Time to Treatment Failure (TTF) measured from randomization • OS at 12 months
# Patients who fulfilled all inclusion criteria were randomized within 4 weeks after the end of first line chemotherapy.
# The vaccination protocol consisted in six vaccinations at three weeks interval. The optimized Vx-001/TERT572Y was used in the first two vaccinations and the native Vx-001/TERT572 in the following four vaccinations. Patients who continued controlling their disease after the sixth vaccination received boost vaccination with the Vx-001/TERT572 every three months. Vaccination was stopped at disease progression (FIG. 1).
# The primary and secondary endpoints were analysed in the Full Analysis Set composed of all patients who fulfilled the […] five main criteria a) NSCLC, b) stage IV or recurrent stage I-III, and c) disease control after first line chemotherapy, d) HLA-A*0201 positivity and e) TERT expressing tumors.
# We used the Kaplan-Meier method to estimate OS and TTF in each arm and a Cox proportional hazards regression model to estimate Hazard Ratio (HR) relating OS and TTF to the treatment effect.
# [1] = FAS patients, all, Vx-001 vs placebo
# [2] = FAS, 1st line chemotherapy CARBO (n = 119), Vx-001 arm
# [3] = FAS, 1st line chemotherapy CDDP (n = 69), Vx-001 arm
# [4] = FAS, Current smoker (n = 50), including light-smoker (≤25 years) (n = 5), Vx-001 arm
# [5] = FAS, Female (n = 59), Vx-001 arm
# [6] = FAS, Male (n = 131), Vx-001 arm
# [7] = FAS, NS + Former smokers (<30 years)(n = 61), Vx-001 arm
# [8] = FAS, NS + Former smokers (≤20 years)(n = 47), Vx-001 arm
# [9] = FAS, Never smokers (NS) (n = 25), Vx-001 arm
# [10] = FAS, age <65 years (n = 92), Vx-001 arm
# [11] = FAS, age >65 years (n = 98), Vx-001 arm
# [12] = FAS, response to chemotherapy OR (n = 87), Vx-001 arm
# [13] = FAS, response to chemotherapy SD (n = 103), Vx-001 arm
# [14] = FAS, sub-group NSQ (n = 118), Vx-001 arm
# [15] = FAS, sub-group SQ (n = 72), Vx-001 arm
# [16] = NS + Former smokers (≤25 years), all (n = 55), Vx-001 arm
# [17] = never-smokers and light-smokers (≤25 years, stopped or not), <65 y (n = 28), Vx-001 arm
# [18] = never-smokers and light-smokers (≤25 years, stopped or not), >65 y (n = 32), Vx-001 arm
# [19] = never-smokers and light-smokers (≤25 years, stopped or not), All (n = 60), Vx-001 arm
# [20] = never-smokers and light-smokers (≤25 years, stopped or not), ECOG 0 (n = 28), Vx-001 arm
# [21] = never-smokers and light-smokers (≤25 years, stopped or not), ECOG 1 (n = 32), Vx-001 arm
# [22] = never-smokers and light-smokers (≤25 years, stopped or not), Female (n = 25), Vx-001 arm
# [23] = never-smokers and light-smokers (≤25 years, stopped or not), Male (n = 35), Vx-001 arm
# [24] = never-smokers and light-smokers (≤25 years, stopped or not), NSQ (n = 46), Vx-001 arm
substance,measurement,setting,value
"Vx-001: vaccine composed of two nine-amino-acid peptides, TERT572 (SEQ ID No: 1) and TERT572Y (SEQ ID No: 2), administered separately with adjuvant Montanide ISA51 VG (chain 1 RLFFYRKSV; chain 2 YLFFYRKSV; not fully specified)",12 months survival,"FAS patients, all, Vx-001 arm",58%
same,OS (median),"FAS patients, all, Vx-001 arm",14.3 months
same,TTF (median),"FAS patients, all, Vx-001 arm",3.6 months
same,HR (OS),[1],0.97
same,HR (TTF),[1],0.88
same,12 months OS (%),[2],58.2%
same,Median survival (months),[2],14.3 months
same,HR (OS),"FAS, 1st line chemotherapy CARBO (n = 119), Vx-001 vs placebo",1.06
same,12 months OS (%),[3],59%
same,Median survival (months),[3],15 months
same,HR (OS),"FAS, 1st line chemotherapy CDDP (n = 69), Vx-001 vs placebo",0.81
same,12 months OS (%),[4],37.5%
same,Median survival (months),[4],9 months
same,HR (OS),"FAS, Current smoker (n = 50), including light-smoker (≤25 years) (n = 5), Vx-001 vs placebo",1.39
same,12 months OS (%),[5],53.3%
same,Median survival (months),[5],13.2 months
same,HR (OS),"FAS, Female (n = 59), Vx-001 vs placebo",1.52
same,12 months OS (%),[6],61%
same,Median survival (months),[6],15 months
same,HR (OS),"FAS, Male (n = 131), Vx-001 vs placebo",0.81
same,12 months OS (%),[7],69%
same,Median survival (months),[7],16.2 months
same,HR (OS),"FAS, NS + Former smokers (<30 years)(n = 61), Vx-001 vs placebo",0.67
same,12 months OS (%),[8],72.7%
same,Median survival (months),[8],15.3 months
same,HR (OS),"FAS, NS + Former smokers (≤20 years)(n = 47), Vx-001 vs placebo",0.67
same,12 months OS (%),[9],70%
same,Median survival (months),[9],14.1 months
same,HR (OS),"FAS, Never smokers (NS) (n = 25), Vx-001 vs placebo",0.76
same,12 months OS (%),[10],57.7%
same,Median survival (months),[10],13.4 months
same,HR (OS),"FAS, age <65 years (n = 92), Vx-001 vs placebo",1.2
same,12 months OS (%),[11],59%
same,Median survival (months),[11],15 months
same,HR (OS),"FAS, age >65 years (n = 98), Vx-001 vs placebo",0.78
same,12 months OS (%),[12],69%
same,Median survival (months),[12],15.3 months
same,HR (OS),"FAS, response to chemotherapy OR (n = 87), Vx-001 vs placebo",0.89
same,12 months OS (%),[13],52%
same,Median survival (months),[13],14.3 months
same,HR (OS),"FAS, response to chemotherapy SD (n = 103), Vx-001 vs placebo",0.99
same,12 months OS (%),[14],55%
same,Median survival (months),[14],13.4 months
same,HR (OS),"FAS, sub-group NSQ (n = 118), Vx-001 vs placebo",0.88
same,12 months OS (%),[15],64%
same,Median survival (months),[15],14.3 months
same,HR (OS),"FAS, sub-group SQ (n = 72), Vx-001 vs placebo",1.13
same,12 months OS (%),[16],73% and 73.1%
same,Median survival (months),[16],16.2 months
same,12 months OS,[17],76.9%
same,OS (months),[17],20.2 months
same,HR (OS),"never-smokers and light-smokers (≤25 years, stopped or not), <65 y (n = 28), Vx-001 vs placebo",0.50
same,12 months OS,[18],64.3%
same,OS (months),[18],15.3 months
same,HR (OS),"never-smokers and light-smokers (≤25 years, stopped or not), >65 y (n = 32), Vx-001 vs placebo",0.62
same,12 months OS,[19],70.4%
same,OS (months),[19],20.2 months
same,HR (OS),"never-smokers and light-smokers (≤25 years, stopped or not), All (n = 60), Vx-001 vs placebo",0.55
same,12 months OS,[20],66.7%
same,OS (months),[20],24.7 months
same,HR (OS),"never-smokers and light-smokers (≤25 years, stopped or not), ECOG 0 (n = 28), Vx-001 vs placebo",0.52
same,12 months OS,[21],73.3%
same,OS (months),[21],15.3 months
same,HR (OS),"never-smokers and light-smokers (≤25 years, stopped or not), ECOG 1 (n = 32), Vx-001 vs placebo",0.49
same,12 months OS,[22],61.5%
same,OS (months),[22],15.3 months
same,HR (OS),"never-smokers and light-smokers (≤25 years, stopped or not), Female (n = 25), Vx-001 vs placebo",0.95
same,12 months OS,[23],78.6%
same,OS (months),[23],24.7 months
same,HR (OS),"never-smokers and light-smokers (≤25 years, stopped or not), Male (n = 35), Vx-001 vs placebo",0.34
same,12 months OS,[24],70.0%
same,OS (months),[24],20.2 months
same,HR (OS),"never-smokers and light-smokers (≤25 years, stopped or not), NSQ (n = 46), Vx-001 vs placebo",0.50
same,12 months OS,"never-smokers and light-smokers (≤25 years, stopped or not), SQ (n = 14), Vx-001 arm",71.4%
